# No end group written: not given here.
# Columns and labels:
# [1] = target: T1, Y5 (Homo sapiens, UniProt Q15761); test: Beta-lactamase reporter gene assay (FRET), Y5; type: cell-based
# T1 construct: host or cells: U2OS
# T1 sequence (Q15761 1-445): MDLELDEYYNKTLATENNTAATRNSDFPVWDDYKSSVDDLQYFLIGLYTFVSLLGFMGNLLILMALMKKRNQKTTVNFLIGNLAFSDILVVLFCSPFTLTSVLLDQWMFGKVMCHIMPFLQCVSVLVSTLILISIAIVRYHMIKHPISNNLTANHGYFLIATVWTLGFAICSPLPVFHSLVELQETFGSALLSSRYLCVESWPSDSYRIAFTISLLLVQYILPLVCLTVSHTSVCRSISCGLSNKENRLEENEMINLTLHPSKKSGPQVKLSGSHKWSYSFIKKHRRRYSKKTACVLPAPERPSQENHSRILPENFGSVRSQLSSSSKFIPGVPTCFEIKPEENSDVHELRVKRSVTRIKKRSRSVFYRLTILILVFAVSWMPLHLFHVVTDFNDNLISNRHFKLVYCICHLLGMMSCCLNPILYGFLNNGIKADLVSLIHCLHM
# [2] = target: T2, GHSR (Homo sapiens, UniProt Q92847); test: Competitive and saturation binding, [^125I]-ghrelin, U2OS cells with GHSR
# T2 construct: host or cells: U2OS
# T2 sequence (Q92847 whole entry): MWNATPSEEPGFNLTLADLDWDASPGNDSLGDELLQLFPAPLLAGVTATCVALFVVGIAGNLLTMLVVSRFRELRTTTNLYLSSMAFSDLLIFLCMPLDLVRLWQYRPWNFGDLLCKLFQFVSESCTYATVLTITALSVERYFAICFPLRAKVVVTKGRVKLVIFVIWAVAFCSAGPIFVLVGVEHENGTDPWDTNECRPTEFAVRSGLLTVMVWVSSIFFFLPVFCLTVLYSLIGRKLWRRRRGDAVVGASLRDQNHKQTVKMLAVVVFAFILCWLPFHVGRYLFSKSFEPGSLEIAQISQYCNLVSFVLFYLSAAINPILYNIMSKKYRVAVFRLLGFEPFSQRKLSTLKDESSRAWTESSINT
# Procedure: (§1) Competition binding experiments were performed according to [45]. […] Binding experiments using U2OS cells were optimized and performed in assay buffer (50 mM Tris-Cl pH 7.4, 118 mM NaCl, 5 mM MgCl2, 4.7 mM KCl, 0.1% BSA) for cells stably expressing GHSR and (25 mM HEPES, 120 mM NaCl, 5 mM MgCl2, 4.7 mM KCl, 1 mM CaCl2, 0.5% BSA, 2 g/L glucose) for cells containing receptors Y1, Y2 and Y5. […] Cells were incubated for 60 min at room temperature (RT).
# (§2) Experiments were carried out in duplicate at least three times, and Ki was calculated using the Cheng-Prusoff equation.
# (§3) Data were analyzed by GraphPad Software (San Diego, CA, USA) and are presented as the means ± SEM. The saturation and competitive binding experiments were analyzed according to [46] using the Cheng-Prusoff equation [33]. The competitive binding curves were plotted compared to the best fit for single-binding site models, and half maximal inhibitory concentration (IC50) values were obtained from nonlinear regression analysis. From saturation binding experiments, the dissociation constant (Kd) and number of binding sites/cell (Bmax) were calculated. Inhibition constants (Ki) were calculated from IC50 values, Kd and the concentration of radioligands.
# [3] = target: T3, NPFF-R2 (Homo sapiens, UniProt Q9Y5X5); test: Competitive binding, [^125I]-1DMe, membranes of CHO-K1 cells with NPFF-R2
# T3 construct: host or cells: CHO-K1 (AequoScreen, co-expressing aequorin)
# T3 sequence (Q9Y5X5 whole entry): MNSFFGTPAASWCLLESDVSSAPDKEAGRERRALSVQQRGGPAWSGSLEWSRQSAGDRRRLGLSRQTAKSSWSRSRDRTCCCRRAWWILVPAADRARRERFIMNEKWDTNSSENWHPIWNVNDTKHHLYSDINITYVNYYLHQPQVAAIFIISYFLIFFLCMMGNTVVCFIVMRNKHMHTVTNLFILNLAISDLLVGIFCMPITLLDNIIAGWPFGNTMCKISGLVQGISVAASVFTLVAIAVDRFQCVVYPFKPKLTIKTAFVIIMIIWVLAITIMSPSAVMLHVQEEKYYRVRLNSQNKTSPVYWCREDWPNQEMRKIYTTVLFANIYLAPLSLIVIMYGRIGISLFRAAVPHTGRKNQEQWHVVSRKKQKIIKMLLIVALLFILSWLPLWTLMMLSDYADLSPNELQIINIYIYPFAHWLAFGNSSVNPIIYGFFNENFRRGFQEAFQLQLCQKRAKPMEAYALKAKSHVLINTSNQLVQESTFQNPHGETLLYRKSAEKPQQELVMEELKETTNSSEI
# Procedure: Pellets of CHO-K1 cells containing NPFF-R2, NPFF-R1 and KOR receptors were homogenized in ice-cold homogenizing buffer (20 mM HEPES pH 7.1, 5 mM MgCl2, 0.7 mM bacitracin) with a DIAX 100 Homogenizer (Heidolph Instruments, Schwabach, Germany) and centrifuged in an ultracentrifuge (Beckman Coulter, Fullerton, CA, USA) at 26,000× g for 15 min at 4 °C. The pellets were homogenized in ice-cold homogenization buffer, and the previous steps were repeated 2 more times. After the third centrifugation, pellets were resuspended in ice-cold storage buffer (50 mM Tris-Cl pH 7.4, 0.5 mM EDTA, 10 mM MgCl2, 10% sucrose), and aliquots were stored at −80 °C. The concentration of isolated membrane proteins was determined by a PierceTM BCA Protein Assay Kit (Pierce, Rockford, IL, USA). […]
# as §2
# as §3, with “The competitive binding curves were plotted compared to the best fit for single-binding site models, and half maximal inhibitory concentration (IC50) values were obtained from nonlinear regression analysis.” left out
# [4] = target: T4, NPFF-R1 (Homo sapiens, UniProt Q9GZQ6); test: Competitive and saturation binding, [^125I]-1DMe, membranes of CHO-K1 cells with NPFF-R1
# T4 construct: host or cells: CHO-K1 (isolated membranes)
# T4 sequence (Q9GZQ6 whole entry): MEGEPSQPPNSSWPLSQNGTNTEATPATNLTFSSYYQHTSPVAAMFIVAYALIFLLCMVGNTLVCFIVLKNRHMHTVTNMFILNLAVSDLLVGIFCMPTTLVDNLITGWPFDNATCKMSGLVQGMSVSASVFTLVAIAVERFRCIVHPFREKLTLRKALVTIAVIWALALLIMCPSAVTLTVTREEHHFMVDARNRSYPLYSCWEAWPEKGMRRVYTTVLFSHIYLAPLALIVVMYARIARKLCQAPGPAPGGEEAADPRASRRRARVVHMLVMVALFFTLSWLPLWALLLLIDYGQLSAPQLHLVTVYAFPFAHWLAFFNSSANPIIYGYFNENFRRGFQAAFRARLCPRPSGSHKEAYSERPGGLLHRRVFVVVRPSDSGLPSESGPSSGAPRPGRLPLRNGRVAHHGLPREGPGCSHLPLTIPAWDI
# Procedure: as §2, §3
# [5] = target: T3, NPFF-R2; test: Intracellular Ca^2+ mobilization, AequoScreen CHO-K1 cells with NPFF-R2; type: cell-based; conditions: CHO-K1 NPFF-R2 aequorin cells; peptides 10^−12 to 10^−5 M; mean ± SEM, three times in duplicates; read-out: EC50 intracellular Ca^2+ release, NPFF-R2
# Procedure: The intracellular Ca^2+ level was measured using the AequoScreen stable CHO-K1 cell line containing NPFF-R2 purchased from Perkin Elmer according to the manufacturer’s protocol. Cells at 80–90% confluence cultured in media without selective antibiotics were detached (PBS pH 7.4 + 0.5 mM EDTA) and centrifuged. Cells resuspended in phenol red-free DMEM with 0.1% protease-free BSA and 5 µM coelenterazine h (Thermo Fisher Scientific Inc. Brand) were seeded at 50,000 cells/well in 96-well plates and incubated in the dark at RT with gentle agitation for 4 h. Peptides were tested at concentrations from 10^−12 to 10^−5 M. Luminescent light emission was recorded using a FlexStation 3 plate reader.
# Ca^2+ release assay data are shown as the percentage of maximal response, and the results were analyzed by nonlinear regression as log agonist versus response using GraphPad software. Data are representative of at least three experiments, each performed in duplicate.
# [6] = target: T5, ORL-1 (Homo sapiens, UniProt P41146); test: Beta-lactamase reporter gene assay (FRET), ORL-1; type: cell-based; conditions: β-lactamase assay, agonist mode, U2OS cells; mean ± SEM, 2–3 independent experiments in duplicates
# T5 construct: host or cells: U2OS
# T5 sequence (P41146 whole entry): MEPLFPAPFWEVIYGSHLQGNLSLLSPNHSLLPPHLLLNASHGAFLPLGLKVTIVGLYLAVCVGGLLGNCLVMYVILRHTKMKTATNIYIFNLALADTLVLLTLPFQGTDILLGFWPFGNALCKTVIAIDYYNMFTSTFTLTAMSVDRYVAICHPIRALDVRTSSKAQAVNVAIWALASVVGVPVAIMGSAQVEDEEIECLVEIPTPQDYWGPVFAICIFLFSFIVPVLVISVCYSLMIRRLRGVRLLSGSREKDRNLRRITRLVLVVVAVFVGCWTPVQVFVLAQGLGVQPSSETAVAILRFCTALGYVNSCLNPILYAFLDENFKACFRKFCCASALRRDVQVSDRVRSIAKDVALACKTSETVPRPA
# [7] = target: T6, Y1 (Homo sapiens, UniProt P25929); test: Competitive and saturation binding, [^125I]-PYY, U2OS cells with Y1
# T6 construct: host or cells: U2OS
# T6 sequence (P25929 1-384): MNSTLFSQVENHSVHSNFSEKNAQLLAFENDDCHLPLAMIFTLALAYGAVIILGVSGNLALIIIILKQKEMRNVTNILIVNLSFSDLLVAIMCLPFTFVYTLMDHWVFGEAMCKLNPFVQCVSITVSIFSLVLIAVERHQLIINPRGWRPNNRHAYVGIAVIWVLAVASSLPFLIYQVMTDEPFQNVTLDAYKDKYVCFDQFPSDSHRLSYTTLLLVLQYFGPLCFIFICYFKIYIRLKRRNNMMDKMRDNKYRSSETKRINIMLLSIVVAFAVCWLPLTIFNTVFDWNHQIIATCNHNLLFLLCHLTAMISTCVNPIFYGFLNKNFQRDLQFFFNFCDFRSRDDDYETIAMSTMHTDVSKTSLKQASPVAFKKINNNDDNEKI
# Procedure: as §1, §2, §3
# [8] = target: T1, Y5; test: Competitive and saturation binding, [^125I]-PYY, U2OS cells with Y5
# Procedure: as §1, §2, §3
# [9] = target: T7, KOR (Homo sapiens, UniProt P41145); test: cell-based
# T7 construct: host or cells: CHO-K1
# T7 sequence (P41145 whole entry): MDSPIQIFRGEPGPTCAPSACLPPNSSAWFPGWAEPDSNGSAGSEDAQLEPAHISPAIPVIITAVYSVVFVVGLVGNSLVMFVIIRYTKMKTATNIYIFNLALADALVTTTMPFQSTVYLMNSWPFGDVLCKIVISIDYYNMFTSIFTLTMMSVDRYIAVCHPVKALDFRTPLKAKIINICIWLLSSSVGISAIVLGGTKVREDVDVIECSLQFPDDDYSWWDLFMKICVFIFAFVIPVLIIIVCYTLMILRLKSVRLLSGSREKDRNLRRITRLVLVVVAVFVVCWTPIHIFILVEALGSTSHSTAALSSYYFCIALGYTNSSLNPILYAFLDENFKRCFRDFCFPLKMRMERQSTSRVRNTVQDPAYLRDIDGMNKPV
Compound,EC50 [1],Ki [2],Ki [3],Ki [4],EC50 [5],EC50 [6],Ki [7],Ki [8],EC50 [9]
CCCCCCCCCCCCCCCC(=O)N[C@@H](CO)C(=O)N[C@@H](CCCNC(=N)N)C(=O)N[C@H](C(=O)N[C@@H](Cc1c[nH]cn1)C(=O)N[C@@H](CCCNC(=N)N)C(=O)N[C@@H](Cc1c[nH]cn1)C(=O)N[C@@H](CO)C(=O)N[C@@H](CCSC)C(=O)N[C@@H](CCC(=O)O)C(=O)N[C@H](C(=O)N[C@@H](CCCNC(=N)N)C(=O)N[C@H](C(=O)N1CCC[C@H]1C(=O)N[C@@H](CC(=O)O)C(=O)N[C@H](C(=O)N[C@@H](CC(N)=O)C(=O)N1CCC[C@H]1C(=O)N[C@@H](C)C(=O)N[C@@H](Cc1c[nH]c2ccccc12)C(=O)N[C@@H](Cc1ccc(O)cc1)C(=O)N[C@@H](C)C(=O)N[C@@H](CO)C(=O)N[C@@H](CCCNC(=N)N)C(=O)NCC(=O)N[C@H](C(=O)N[C@@H](CCCNC(=N)N)C(=O)N1CCC[C@H]1C(=O)N[C@H](C(=O)NCC(=O)N[C@@H](CCCNC(=N)N)C(=O)N[C@@H](Cc1ccccc1)C(N)=O)C(C)C)[C@@H](C)CC)[C@@H](C)CC)[C@@H](C)O)[C@@H](C)CC)[C@@H](C)O [Palm-PrRP31],56.5 ± 18.4 nM,160 ± 16 nM,0.77 ± 0.19 nM,0.78 ± 0.11 nM,14.2 ± 1.52 nM,> 10000 nM,3147 ± 31 nM,32.6 ± 6.16 nM,> 10000 nM
"SRAHQHSMETRTPDINPAWYTGRGIRPVGRF-NH2 [PrRP31, prolactin-releasing peptide 31, reference compound]",> 10000 nM,> 10000 nM,26.7 ± 9.01 nM,40.4 ± 4.2 nM,89.33 ± 0.84 nM,> 10000 nM,> 10000 nM,2860 ± 43 nM,> 10000 nM
